Experimental data as given in patent US8586020B2, “Poly(organophosphazene) composition for biomaterials” (Korea Institute of Science and Technology, priority 2011, dated 2013).

How the values were obtained:
[1] = pH 7.4

Row | Max. Gelling Temp. [1] | Substance | cell viability (MTT) (NIH3T3 cells)
1 | 38 °C | Poly[(isoleucineethylester)(aminomethoxy polyethyleneglycol550)(cysteamine)phosphazene] [Example 21] | such a high viability as the cell alone
2 | 42 °C | Poly[(isoleucineethylester)(aminomethoxy polyethyleneglycol550)(cysteamine)phosphazene] [Example 22] | such a high viability as the cell alone
3 | 34 °C | Poly[(isoleucineethylester)(aminomethoxy polyethyleneglycol550)(tyramine)phosphazene] [Example 24] | 
